The structures appear in SMILES notation.

`*/C=C(/*)c1ccccc1C(F)(F)F` (repeat unit) gave a glass transition temperature of 130.00 °C. For `*/N=N/c1ccc(Nc2ccc(C(=O)c3ccc(Nc4ccc(*)cc4)cc3)cc2)cc1` (repeat unit), the glass transition temperature turned out to be 216.42 °C. In the case of `*C(=O)Nc1cccc(NC(=O)c2ccc3c(c2)C(=O)N(c2ccc(Oc4cccc5c(N6C(=O)c7ccc(*)cc7C6=O)cccc45)cc2)C3=O)n1` (repeat unit), the glass transition temperature was 293.00 °C. Regarding `*C(=O)Nc1cccc(NC(=O)c2ccc3c(c2)C(=O)N(c2ccc(Oc4cccc5c(Oc6ccc(N7C(=O)c8ccc(*)cc8C7=O)cc6)cccc45)cc2)C3=O)c1` (repeat unit), the glass transition temperature was 263.00 °C. On to `*C(=O)Nc1cccc(Oc2ccc(S(=O)(=O)c3ccc(Oc4cccc(NC(=O)c5ccc(N6C(=O)c7ccc(*)cc7C6=O)cc5)c4)cc3)cc2)c1` (repeat unit), for which the glass transition temperature was determined as 235.00 °C. Turning to `*C(=O)Nc1cccc2cccc(N3C(=O)CC(N4C(=O)c5ccc(*)cc5C4=O)C3=O)c12` (repeat unit), the glass transition temperature was found to be 193.00 °C.

For `*C(=O)Oc1ccc(-c2ccc(OC(=O)c3ccc4c(c3)C(=O)N(c3ccc(-c5ccc(N6C(=O)c7ccc(*)cc7C6=O)cc5C)c(C)c3)C4=O)cc2C)c(C)c1` (repeat unit), the glass transition temperature worked out at 177.00 °C. For the compound `*C(=O)Oc1ccc(OC(=O)c2ccc3c(c2)C(=O)N(c2ccc(Oc4ccc(N5C(=O)c6ccc(*)cc6C5=O)cc4)cc2)C3=O)c(C(C)(C)C)c1` (repeat unit), the glass transition temperature came to 189.00 °C. Consider `*C(=O)c1ccc(C(=O)c2ccc3c(c2)C(=O)N(c2ccc(C(=O)c4ccc(C(=O)c5ccc(N6C(=O)c7ccc(*)cc7C6=O)cc5)cc4)cc2)C3=O)cc1` (repeat unit), for which the glass transition temperature came out at 260.00 °C. The figure for `*C(=O)c1ccc2c(c1)C(=O)N(c1ccc(Cc3ccc(C(=O)c4ccc(N5C(=O)c6ccc(*)cc6C5=O)cc4)cc3)cc1)C2=O` (repeat unit) is 307.00 °C; for `*CCCCC(=O)Oc1ccc(OC(=O)c2ccc3c(c2)C(=O)N(*)C3=O)c(C)c1` (repeat unit) it is 75.76 °C. In the case of `*CCCCCCC(=O)Oc1ccc(OC(=O)c2ccc3c(c2)C(=O)N(*)C3=O)c(C)c1` (repeat unit) it was 57.21 °C; in that of `*CCCCCCCCOc1cccc(NC(=O)c2ccc(C(=O)Nc3cccc(O*)c3)cc2)c1` (repeat unit), 122.00 °C; in that of `*CCCCCCCCOc1cccc(NC(=O)c2cccc(C(=O)Nc3cccc(O*)c3)c2)c1` (repeat unit), 117.00 °C. For `*CCCCCCOC(=O)Nc1cccc(P(=O)(c2ccccc2)c2cccc(NC(=O)O*)c2)c1` (repeat unit), the glass transition temperature is 30.00 °C.

Compound `*CCCCCCOc1ccc(C(=O)OC(=O)c2ccc(O*)cc2)cc1` (repeat unit) returned a glass transition temperature of 47.00 °C. Take `*CCCCCOc1cccc(NC(=O)c2cccc(C(=O)Nc3cccc(O*)c3)c2)c1` (repeat unit): the glass transition temperature came out at 131.50 °C. `*CCCCOc1cccc(C(=O)OC(=O)c2cccc(O*)c2)c1` (repeat unit): the glass transition temperature is 20.00 °C. Consider `*CCCOc1ccc(C(=O)OC(=O)c2ccc(O*)cc2)cc1` (repeat unit), for which the glass transition temperature worked out at 95.00 °C. The figure for `*CCCOc1cccc(C(=O)OC(=O)c2cccc(O*)c2)c1` (repeat unit) is 53.00 °C; for `*CCOCCOc1cccc(NC(=O)c2ccc(C(=O)Nc3cccc(O*)c3)cc2)c1` (repeat unit) it is 140.00 °C. In the case of `*OC(*)C` (repeat unit) it was -19.50 °C; in that of `*OC(*)CCC` (repeat unit), -41.00 °C; in that of `*OC(=O)c1ccc(CCCCc2ccc(C(*)=O)cc2)cc1` (repeat unit), 46.00 °C.

On to `*OC(C)C(=O)OCC(*)=O` (repeat unit), for which the glass transition temperature was determined as 43.00 °C. Compound `*OC(CC)C(*)=O` (repeat unit) showed a glass transition temperature of 15.00 °C. Regarding `*OC(CCl)COC(=O)C1=C(C(=O)OCC(CCl)OC(=O)c2ccc(C(*)=O)cc2)C2C=CC1C2` (repeat unit), the glass transition temperature came to 72.00 °C. For the compound `*OC(F)(F)C(*)(F)F` (repeat unit), the glass transition temperature is -48.00 °C.

`*OC1C(C)(C)C(OC(=O)c2ccc(C(*)=O)cc2)C1(C)C` (repeat unit) gave a glass transition temperature of 184.00 °C. On to `*ON(C(F)(F)F)C(F)(Cl)C(*)(F)F` (repeat unit), for which the glass transition temperature is -50.00 °C. In the case of `*OP(=O)(Oc1ccc(Br)cc1)OC(CCl)COc1ccc(S(=O)(=O)c2ccc(OCC(*)CCl)cc2)cc1` (repeat unit) it was 58.00 °C; in that of `*O[Si](C)(C)O[Si](C)(C)O[Si](C)(C)O[Si](C)(C)OC1=C(*)c2cccc3cccc1c23` (repeat unit), -43.00 °C; in that of `*Oc1cc(C)cc(OC(=O)c2cccc(C(*)=O)c2)c1` (repeat unit), 163.00 °C.

Compound `*Oc1cc(CC)cc(OC(=O)c2cccc(C(*)=O)c2)c1` (repeat unit) registered a glass transition temperature of 138.00 °C. Compound `*Oc1cc(CCCCCC)cc(OC(=O)c2cccc(C(*)=O)c2)c1` (repeat unit) returned a glass transition temperature of 67.50 °C.

In turn, `*Oc1cc(CCCCCCCC)cc(OC(=O)c2cccc(C(*)=O)c2)c1` (repeat unit) returned a glass transition temperature of 50.50 °C.

As for `*Oc1cc(CCCCCCCCC)cc(OC(=O)c2cccc(C(*)=O)c2)c1` (repeat unit), the glass transition temperature came out at 41.50 °C. In turn, `*Oc1cc(OC(=O)c2ccc(OCC(C)CC)cc2)c(OC(=O)CCCC(*)=O)cc1OC(=O)c1ccc(OCC(C)CC)cc1` (repeat unit) yielded a glass transition temperature of 60.00 °C. `*Oc1cc(OC(=O)c2ccc(OCC)cc2)c(OC(=O)CCCC(*)=O)cc1OC(=O)c1ccc(OCC)cc1` (repeat unit): the glass transition temperature stood at 71.00 °C.

The compound `*Oc1cc(OC(=O)c2ccc(OCCCC)cc2)c(OC(=O)C(C)CCC(*)=O)cc1OC(=O)c1ccc(OCCCC)cc1` (repeat unit) gave a glass transition temperature of 55.00 °C. `*Oc1cc(OC(=O)c2ccc(OCCCC)cc2)c(OC(=O)CCCCCC(*)=O)cc1OC(=O)c1ccc(OCCCC)cc1` (repeat unit) returned a glass transition temperature of 45.00 °C. In the case of `*Oc1ccc(-c2ccc(OC(=O)Nc3cccc(P(=O)(c4ccccc4)c4cccc(NC(*)=O)c4)c3)cc2)cc1` (repeat unit), the glass transition temperature was 72.00 °C.

In the case of `*Oc1ccc(-c2ccc(OC(=O)OC3C(C)(C)C(OC(*)=O)C3(C)C)cc2)cc1` (repeat unit), the glass transition temperature was 165.00 °C. `*Oc1ccc(C(c2ccccc2)(c2ccccc2)c2ccc(OC(=O)OC3C(C)(C)C(OC(*)=O)C3(C)C)cc2)cc1` (repeat unit) displayed a glass transition temperature of 161.00 °C.

In turn, `*Oc1ccc(C2(c3ccc(OC(=O)OC4C(C)(C)C(OC(*)=O)C4(C)C)cc3)CC3CCC2C3)cc1` (repeat unit) returned a glass transition temperature of 184.00 °C. The figure for `*Oc1ccc(OC(=O)c2ccc(-c3ccc(C(*)=O)cc3)cc2-c2ccccc2)cc1C(C)(C)c1ccccc1` (repeat unit) is 146.00 °C. With `*Oc1ccc(S(=O)(=O)c2ccc(OC(=O)OC3C(C)(C)C(OC(*)=O)C3(C)C)cc2)cc1` (repeat unit), the glass transition temperature stood at 162.00 °C. Compound `*Oc1ccc(Sc2ccc(OC(=O)OC3C(C)(C)C(OC(*)=O)C3(C)C)cc2)cc1` (repeat unit) came in with a glass transition temperature of 107.00 °C.

For the compound `*Oc1ccc2c(c1)C1(CC2(C)C)CC(C)(C)c2ccc(OC(*)=O)cc21` (repeat unit), the glass transition temperature turned out to be 228.00 °C. The compound `*Oc1ccc2c(c1)C1(CC2(C)C)CC(C)(C)c2ccc(OC(=O)c3ccc(C(*)=O)cc3)cc21` (repeat unit) yielded a glass transition temperature of 290.00 °C. Regarding `*Oc1ccc2c(c1)C1(CC2(C)C)CC(C)(C)c2ccc(OC(=O)c3cccc(C(*)=O)c3)cc21` (repeat unit), the glass transition temperature was 245.00 °C. As for `*Oc1cccc(NC(=O)c2cc(C(=O)Nc3ccc(*)cc3)cc(C(F)(F)C(F)(F)C(F)(F)C(F)(F)C(F)(F)C(F)(F)C(F)(F)C(F)(F)F)c2)c1` (repeat unit), the glass transition temperature worked out at 210.00 °C.

As to `*Oc1cccc(NC(=O)c2cc(C(=O)Nc3ccc(*)cc3)cc(C(F)(F)C(F)(F)C(F)(F)C(F)(F)F)c2)c1` (repeat unit), the glass transition temperature amounted to 230.00 °C.

Compound `*Oc1cccc(NC(=O)c2ccc(C(=O)c3cccc(C(=O)Nc4ccc(*)cc4)c3)cc2)c1` (repeat unit) came in with a glass transition temperature of 237.00 °C.

On to `*Oc1cccc(NC(=O)c2ccc(P(=O)(c3ccccc3)c3ccc(C(=O)Nc4cccc(Oc5ccc(P(=O)(c6ccccc6)c6ccc(*)cc6)cc5)c4)cc3)cc2)c1` (repeat unit), for which the glass transition temperature came out at 235.00 °C.

In the case of `*Oc1cccc(NC(=O)c2cccc(C(=O)Nc3ccc(*)cc3)c2)c1` (repeat unit), the glass transition temperature turned out to be 240.00 °C.

For the compound `*Oc1cccc(Oc2cccc(NC(=O)c3cccc(Oc4cccc(Oc5cccc(C(=O)Nc6cccc(*)c6)c5)c4)c3)c2)c1` (repeat unit), the glass transition temperature worked out at 137.50 °C.

Regarding `*c1ccc(C(=O)Nc2cccc(Oc3ccc(S(=O)(=O)c4ccc(Oc5cccc(NC(=O)c6ccc(N7C(=O)c8ccc(-c9ccc%10c(c9)C(=O)N(*)C%10=O)cc8C7=O)cc6)c5)cc4)cc3)c2)cc1` (repeat unit), the glass transition temperature was found to be 262.00 °C. Compound `*c1ccc(Oc2cccc(NC(=O)c3cc(C(=O)Nc4cccc(Oc5ccc(-c6nnc(*)o6)cc5)c4)cc(N4C(=O)c5c(Cl)c(Cl)c(Cl)c(Cl)c5C4=O)c3)c2)cc1` (repeat unit) yielded a glass transition temperature of 275.00 °C. Compound `*c1ccc(Oc2cccc(NC(=O)c3ccc(C(=O)Nc4cccc(Oc5ccc(-c6nnc(*)o6)cc5)c4)c(Oc4ccccc4)c3)c2)cc1` (repeat unit) yielded a glass transition temperature of 234.00 °C. Consider `*c1cccc(C(=O)Nc2cccc(S(=O)(=O)c3cccc(NC(=O)c4cccc(N5C(=O)c6ccc(-c7ccc8c(c7)C(=O)N(*)C8=O)cc6C5=O)c4)c3)c2)c1` (repeat unit), for which the glass transition temperature is 247.00 °C.

The record behind these values is the PolyMetriX glass transition set.
